Assays:
Format in all cases: in vivo
[1] = test system: Italian ryegrass (Lolium mutiflorum); assay: Test C preemergence, visual plant response rating; details: Test C, 0 is no effect, 100 is complete control
Procedure, shortened: (§1)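 Seeds sown in a loam–sand blend got a directed preemergence soil spray; postemergence plants (2–10 cm, one- to two-leaf stage) were sprayed with compound in a non-phytotoxic solvent plus surfactant. Injury was scored visually against untreated controls after about 10 d in a greenhouse on a 0–100 scale (100 = complete control).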

[2] = test system: barnyardgrass (Echinochloa crus-galli); assay: Test C preemergence, visual plant response rating; details: Test C, 0 is no effect, 100 is complete control
Procedure, shortened: as §1

[3] = test system: foxtail, giant (giant foxtail, Setaria faberi); assay: Test C preemergence, visual plant response rating; details: Test C, 0 is no effect, 100 is complete control
Procedure, shortened: as §1

[4] = test system: kochia (Bassia scoparia); assay: Test C preemergence, visual plant response rating; details: Test C, 0 is no effect, 100 is complete control
Procedure, shortened: as §1

[5] = test system: pigweed (Amaranthus retroflexus); assay: Test C preemergence, visual plant response rating; details: Test C, 0 is no effect, 100 is complete control
Procedure, shortened: as §1

[6] = test system: ragweed (common ragweed, Ambrosia artemisiifolia); assay: Test C preemergence, visual plant response rating; details: Test C, 0 is no effect, 100 is complete control
Procedure, shortened: as §1

[7] = test system: Italian ryegrass (Lolium mutiflorum); assay: Test C postemergence, visual plant response rating
Procedure, shortened: as §1

[8] = test system: barnyardgrass (Echinochloa crus-galli); assay: Test C postemergence, visual plant response rating
Procedure, shortened: as §1

[9] = test system: blackgrass (Alopecurus myosuroides); assay: Test C postemergence, visual plant response rating
Procedure, shortened: as §1

[10] = test system: corn (Zea mays); assay: Test C postemergence, visual plant response rating
Procedure, shortened: as §1

[11] = test system: foxtail, giant (giant foxtail, Setaria faberi); assay: Test C postemergence, visual plant response rating
Procedure, shortened: as §1

[12] = test system: galium (catchweed bedstraw, Galium aparine); assay: Test C postemergence, visual plant response rating
Procedure, shortened: as §1

[13] = test system: kochia (Bassia scoparia); assay: Test C postemergence, visual plant response rating
Procedure, shortened: as §1

[14] = test system: pigweed (Amaranthus retroflexus); assay: Test C postemergence, visual plant response rating
Procedure, shortened: as §1

[15] = test system: ragweed (common ragweed, Ambrosia artemisiifolia); assay: Test C postemergence, visual plant response rating
Procedure, shortened: as §1

[16] = test system: wheat (Triticum aestivum); assay: Test C postemergence, visual plant response rating
Procedure, shortened: as §1

[17] = test system: barnyardgrass (Echinochloa crus-galli); assay: Test D flooded paddy test, visual plant response rating; details: 250 g ai/ha, scale 0 to 100 (0 no effect, 100 complete control), 13 to 15 d
Procedure, shortened: (§2)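 Greenhouse paddy assay scored on a 0–100 visual scale after 13 to 15 d, where 100 means complete control and a dash marks no result; dosing was into 3 cm floodwater over 2-leaf plants.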

[18] = test system: duck salad (Heteranthera limosa); assay: as above; details: 250 g ai/ha, scale 0 to 100 (0 no effect, 100 complete control), 13 to 15 d
Procedure, shortened: as §2

[19] = test system: rice (Oryza sativa); assay: as above; details: 250 g ai/ha, scale 0 to 100 (0 no effect, 100 complete control), 13 to 15 d
Procedure, shortened: as §2

[20] = test system: sedge umbrella (small-flower umbrella sedge, Cyperus difformis); assay: as above; details: 250 g ai/ha, scale 0 to 100 (0 no effect, 100 complete control), 13 to 15 d
Procedure, shortened: as §2

[21] = Test C, postemergence, 125 g ai/ha

SMILES	Ryegrass, Italian plant response rating (0 to 100 scale) ([1]; 31 g ai/ha)	Ryegrass, Italian plant response rating (0 to 100 scale) ([1]; 125 g ai/ha)	Barnyardgrass plant response rating (0 to 100 scale) ([2]; 31 g ai/ha)	Barnyardgrass plant response rating (0 to 100 scale) ([2]; 125 g ai/ha)	Foxtail, Giant plant response rating (0 to 100 scale) ([3]; 31 g ai/ha)	Foxtail, Giant plant response rating (0 to 100 scale) ([3]; 125 g ai/ha)	Kochia plant response rating (0 to 100 scale) ([4]; 31 g ai/ha)	Kochia plant response rating (0 to 100 scale) ([4]; 125 g ai/ha)	Pigweed plant response rating (0 to 100 scale) ([5]; 31 g ai/ha)	Pigweed plant response rating (0 to 100 scale) ([5]; 125 g ai/ha)	Ragweed plant response rating (0 to 100 scale) ([6]; 31 g ai/ha)	Ragweed plant response rating (0 to 100 scale) ([6]; 125 g ai/ha)	Ryegrass, Italian plant response rating (0 to 100 scale) ([7]; Postemergence, 31 g ai/ha)	Ryegrass, Italian plant response rating (0 to 100 scale) [7, 21]	Barnyardgrass plant response rating (0 to 100 scale) ([8]; Postemergence, 31 g ai/ha)	Barnyardgrass plant response rating (0 to 100 scale) [8, 21]	Blackgrass plant response rating (0 to 100 scale) ([9]; Postemergence, 31 g ai/ha)	Blackgrass plant response rating (0 to 100 scale) [9, 21]	Corn plant response rating (0 to 100 scale) ([10]; Postemergence, 31 g ai/ha)	Corn plant response rating (0 to 100 scale) [10, 21]	also measured
CON=C(c1cc(F)cc(F)c1F)c1c(O)c(C)nn(C)c1=O [Compound 226]	30	70	0	0	10	10	0	40	30	70	30	70	20	50	10	20	0	0	0	0	Foxtail, Giant plant response rating (0 to 100 scale) ([11]; Postemergence, 31 g ai/ha): 30; Foxtail, Giant plant response rating (0 to 100 scale) [11, 21]: 40; Galium plant response rating (0 to 100 scale) ([12]; Postemergence, 31 g ai/ha): 50; Galium plant response rating (0 to 100 scale) [12, 21]: 90; Kochia plant response rating (0 to 100 scale) ([13]; Postemergence, 31 g ai/ha): 20; Kochia plant response rating (0 to 100 scale) [13, 21]: 60; Pigweed plant response rating (0 to 100 scale) ([14]; Postemergence, 31 g ai/ha): 30; Pigweed plant response rating (0 to 100 scale) [14, 21]: 50; Ragweed plant response rating (0 to 100 scale) ([15]; Postemergence, 31 g ai/ha): 30; Ragweed plant response rating (0 to 100 scale) [15, 21]: 70; Wheat plant response rating (0 to 100 scale) ([16]; Postemergence, 31 g ai/ha): 0; Wheat plant response rating (0 to 100 scale) [16, 21]: 0; Plant response rating, Barnyardgrass (Flood) [17]: 0; Plant response rating, Ducksalad (Flood) [18]: 0; Plant response rating, Rice (Flood) [19]: 0; Plant response rating, Sedge, Umbrella (Flood) [20]: 0
CON=C(c1cc(F)cc(F)c1F)c1c(O)c(C)nn(C)c1=O [Compound 227]	30	60	0	20	0	30	0	10	0	10	20	80	20	40	0	20	0	0	0	0	Foxtail, Giant plant response rating (0 to 100 scale) ([11]; Postemergence, 31 g ai/ha): 0; Foxtail, Giant plant response rating (0 to 100 scale) [11, 21]: 0; Galium plant response rating (0 to 100 scale) ([12]; Postemergence, 31 g ai/ha): 60; Galium plant response rating (0 to 100 scale) [12, 21]: 80; Kochia plant response rating (0 to 100 scale) ([13]; Postemergence, 31 g ai/ha): 30; Kochia plant response rating (0 to 100 scale) [13, 21]: 70; Pigweed plant response rating (0 to 100 scale) ([14]; Postemergence, 31 g ai/ha): 30; Pigweed plant response rating (0 to 100 scale) [14, 21]: 50; Ragweed plant response rating (0 to 100 scale) ([15]; Postemergence, 31 g ai/ha): 20; Ragweed plant response rating (0 to 100 scale) [15, 21]: 50; Wheat plant response rating (0 to 100 scale) ([16]; Postemergence, 31 g ai/ha): 0; Wheat plant response rating (0 to 100 scale) [16, 21]: 0; Plant response rating, Barnyardgrass (Flood) [17]: 0; Plant response rating, Ducksalad (Flood) [18]: 0; Plant response rating, Rice (Flood) [19]: 0; Plant response rating, Sedge, Umbrella (Flood) [20]: 0
C#CCO/N=C(/c1ccc(F)c(Cl)c1)c1c(O)c(C)nn(C)c1=O [Compound 229]	20	90	0	30	10	30	0	0	10	40	0	0	40	70	0	30	50	0	0	40	Foxtail, Giant plant response rating (0 to 100 scale) ([11]; Postemergence, 31 g ai/ha): 10; Foxtail, Giant plant response rating (0 to 100 scale) [11, 21]: 40; Galium plant response rating (0 to 100 scale) ([12]; Postemergence, 31 g ai/ha): 60; Galium plant response rating (0 to 100 scale) [12, 21]: 80; Kochia plant response rating (0 to 100 scale) ([13]; Postemergence, 31 g ai/ha): 0; Kochia plant response rating (0 to 100 scale) [13, 21]: 0; Pigweed plant response rating (0 to 100 scale) ([14]; Postemergence, 31 g ai/ha): 20; Pigweed plant response rating (0 to 100 scale) [14, 21]: 50; Ragweed plant response rating (0 to 100 scale) ([15]; Postemergence, 31 g ai/ha): 10; Ragweed plant response rating (0 to 100 scale) [15, 21]: 20; Wheat plant response rating (0 to 100 scale) ([16]; Postemergence, 31 g ai/ha): 30; Wheat plant response rating (0 to 100 scale) [16, 21]: 60; Plant response rating, Barnyardgrass (Flood) [17]: 0; Plant response rating, Ducksalad (Flood) [18]: 0; Plant response rating, Rice (Flood) [19]: 0; Plant response rating, Sedge, Umbrella (Flood) [20]: 0
C#CCO/N=C(\c1ccc(F)c(Cl)c1)c1c(O)c(C)nn(C)c1=O [Compound 230]	0	10	0	0	0	30	0	0	10	30	0	0	0	40	0	20	0	10	0	0	Foxtail, Giant plant response rating (0 to 100 scale) ([11]; Postemergence, 31 g ai/ha): 10; Foxtail, Giant plant response rating (0 to 100 scale) [11, 21]: 30; Galium plant response rating (0 to 100 scale) ([12]; Postemergence, 31 g ai/ha): 50; Galium plant response rating (0 to 100 scale) [12, 21]: 70; Kochia plant response rating (0 to 100 scale) ([13]; Postemergence, 31 g ai/ha): 0; Kochia plant response rating (0 to 100 scale) [13, 21]: 0; Pigweed plant response rating (0 to 100 scale) ([14]; Postemergence, 31 g ai/ha): 0; Pigweed plant response rating (0 to 100 scale) [14, 21]: 20; Ragweed plant response rating (0 to 100 scale) ([15]; Postemergence, 31 g ai/ha): 10; Ragweed plant response rating (0 to 100 scale) [15, 21]: 20; Wheat plant response rating (0 to 100 scale) ([16]; Postemergence, 31 g ai/ha): 0; Wheat plant response rating (0 to 100 scale) [16, 21]: 60; Plant response rating, Barnyardgrass (Flood) [17]: 0; Plant response rating, Ducksalad (Flood) [18]: 0; Plant response rating, Rice (Flood) [19]: 0; Plant response rating, Sedge, Umbrella (Flood) [20]: 0

From US20210045385A1, “PYRIDAZINONE-SUBSTITUTED KETOXIMES AS HERBICIDES” (FMC Corporation, priority 2018, published 2021)
